Test results reported in PubChem BioAssay AID256 (DTP/NCI, 2004).
Several values for one entry are separate records, joined by “and”; a condition that tells them apart may be missing. Equal values may be shown once. Inconclusive results and toxic doses are left out. The calls were made as follows: active = survival T/C of 150% or more; inactive = T/C below 125% in these data.

System: CD2F1 mice, L1210 leukemia ip, survival T/C
Assay: NCI In Vivo Anticancer Drug Screen. Data for tumor model L1210 Leukemia (intraperitoneal) in CD2F1 (CDF1) mice
Details: higher = longer survival
Summary of the method: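 Vehicle-treated tumor-bearing mice served as controls (C) for compound-treated mice (T). Reported figure is T divided by C.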

[1] = endpoint: mean survival time, dose: 6.25 mg/kg/injection, schedule: Q01DX009 (ip), vehicle: saline with Tween-80
[2] = endpoint: mean survival time, dose: 12.5 mg/kg/injection, schedule: Q01DX009 (ip), vehicle: saline with Tween-80
[3] = endpoint: mean survival time, dose: 25.0 mg/kg/injection, schedule: Q01DX009 (ip), vehicle: saline with Tween-80
[4] = endpoint: mean survival time, dose: 25.0 mg/kg/injection, schedule: Q04DX003 (ip), vehicle: saline with Tween-80
[5] = endpoint: mean survival time, dose: 50.0 mg/kg/injection, schedule: Q01DX009 (ip), vehicle: saline with Tween-80
[6] = endpoint: mean survival time, dose: 100.0 mg/kg/injection, schedule: Q01DX009 (ip), vehicle: saline with Tween-80
[7] = endpoint: mean survival time, dose: 200.0 mg/kg/injection, schedule: Q01DX009 (ip), vehicle: saline with Tween-80
[8] = endpoint: mean survival time, dose: 100.0 mg/kg/injection, schedule: Q04DX003 (ip), vehicle: saline with Tween-80
[9] = endpoint: mean survival time, dose: 200.0 mg/kg/injection, schedule: Q04DX003 (ip), vehicle: saline with Tween-80
[10] = endpoint: mean survival time, dose: 400.0 mg/kg/injection, schedule: Q04DX003 (ip), vehicle: saline with Tween-80

Measured: T/C

Cc1c(N)nc(C(CC(N)=O)NCC(N)C(N)=O)nc1C(=O)NC(C(=O)NC(C)C(O)CC(=O)NC(C(=O)NC(OC1OC(C)C(N)C(O)C1O)C(O)c1nc(-c2nc(C(=O)NCCCC(N)CC(=O)NCCCNCCCCN)cs2)cs1)C(C)O)C(OC1OC(CO)C(O)C(O)C1OC1OC(CO)C(O)C(OC(N)=O)C1O)c1cnc[nH]1 (stereo not drawn)
inactive: endpoint: mean survival time, dose: 1.0 mg/kg/injection, schedule: Q01DX009 (ip), vehicle: saline 103 % of control | endpoint: mean survival time, dose: 2.0 mg/kg/injection, schedule: Q01DX009 (ip), vehicle: saline 101 % of control | endpoint: mean survival time, dose: 4.0 mg/kg/injection, schedule: Q01DX009 (ip), vehicle: saline 104 % of control | endpoint: mean survival time, dose: 8.0 mg/kg/injection, schedule: Q01DX009 (ip), vehicle: saline 104 % of control | endpoint: mean survival time, dose: 16.0 mg/kg/injection, schedule: Q01DX009 (ip), vehicle: saline 86 % of control

CCN(CC)CCCC(C)Nc1ncnc2oc(C)c(C)c12 (stereo not drawn)
inactive: [1] 93 % of control | endpoint: mean survival time, dose: 6.25 mg/kg/injection, schedule: Q04DX003 (ip), vehicle: saline with Tween-80 103 % of control | [2] 95 % of control | endpoint: mean survival time, dose: 12.5 mg/kg/injection, schedule: Q04DX003 (ip), vehicle: saline with Tween-80 105 % of control | [3] 95 % of control | [4] 102 % of control

O=c1scc(-c2ccc(Br)cc2)s1
inactive: endpoint: mean survival time, dose: 12.5 mg/kg/injection, schedule: Q01DX009 (ip), vehicle: Klucel (hydroxypropylcellulose) (HPC) 93 % of control | endpoint: mean survival time, dose: 25.0 mg/kg/injection, schedule: Q01DX009 (ip), vehicle: Klucel (hydroxypropylcellulose) (HPC) 100 % of control

CC1(CO)C(O)CCC2(C)C1CCC1CC3CC12CCC3(O)CO (stereo not drawn)
inactive: [1] 119 % of control and 102 % of control | [2] 106 % of control and 109 % of control | [3] 110 % of control and 111 % of control | [5] 118 % of control and 111 % of control | [6] 121 % of control and 122 % of control | [7] 114 % of control and 102 % of control

COc1cc(OC)c(NC(=O)Oc2ccccc2F)cc1Cl
inactive: [5] 92 % of control | [6] 100 % of control | [7] 100 % of control

CC(C#N)(Nc1ccccc1)c1ccco1 (stereo not drawn)
inactive: endpoint: mean survival time, dose: 6.25 mg/kg/injection, schedule: Q01DX009 (ip), vehicle: other 102 % of control | endpoint: mean survival time, dose: 6.25 mg/kg/injection, schedule: Q04DX003 (ip), vehicle: other 94 % of control | endpoint: mean survival time, dose: 12.5 mg/kg/injection, schedule: Q01DX009 (ip), vehicle: other 100 % of control | endpoint: mean survival time, dose: 12.5 mg/kg/injection, schedule: Q04DX003 (ip), vehicle: other 95 % of control | endpoint: mean survival time, dose: 25.0 mg/kg/injection, schedule: Q01DX009 (ip), vehicle: other 94 % of control | endpoint: mean survival time, dose: 25.0 mg/kg/injection, schedule: Q04DX003 (ip), vehicle: other 106 % of control | endpoint: mean survival time, dose: 100.0 mg/kg/injection, schedule: Q01DX009 (ip), vehicle: other 90 % of control | endpoint: mean survival time, dose: 100.0 mg/kg/injection, schedule: Q04DX003 (ip), vehicle: saline 103 % of control | endpoint: mean survival time, dose: 200.0 mg/kg/injection, schedule: Q01DX009 (ip), vehicle: other 94 % of control | endpoint: mean survival time, dose: 200.0 mg/kg/injection, schedule: Q04DX003 (ip), vehicle: saline 101 % of control | endpoint: mean survival time, dose: 400.0 mg/kg/injection, schedule: Q04DX003 (ip), vehicle: saline 94 % of control

CCCCOC(=O)CCl
inactive: endpoint: mean survival time, dose: 100.0 mg/kg/injection, schedule: Q01DX001 (ip), vehicle: saline 100 % of control | endpoint: mean survival time, dose: 200.0 mg/kg/injection, schedule: Q01DX001 (ip), vehicle: saline 94 % of control

O=C(Nc1cccc(Cl)c1)Nc1ccccc1Cl
inactive: [4] 93 % of control | endpoint: mean survival time, dose: 50.0 mg/kg/injection, schedule: Q04DX003 (ip), vehicle: saline with Tween-80 96 % of control | [8] 95 % of control | [9] 89 % of control | [10] 97 % of control

O=S(CC(O)(c1ccccc1)c1ccccc1)c1ccccc1 (stereo not drawn)
inactive: [8] 93 % of control | [9] 97 % of control | [10] 97 % of control

Cc1nc(N)nc(N)c1-c1ccc(Cl)c(Cl)c1
inactive: endpoint: mean survival time, dose: 1.0 mg/kg/injection, schedule: Q01DX009 (ip), vehicle: Klucel (hydroxypropylcellulose) (HPC) 106 % of control | endpoint: mean survival time, dose: 1.0 mg/kg/injection, schedule: Q01DX009 (ip), vehicle: saline with Tween-80 107 % of control | endpoint: mean survival time, dose: 1.0 mg/kg/injection, schedule: Q02DX005 (ip), vehicle: saline 115 % of control | endpoint: mean survival time, dose: 1.25 mg/kg/injection, schedule: Q01DX005 (ip), vehicle: distilled water + Tween-80 95 % of control | endpoint: mean survival time, dose: 1.25 mg/kg/injection, schedule: Q01DX005 (ip), vehicle: water 104 % of control | endpoint: mean survival time, dose: 1.3 mg/kg/injection, schedule: Q01DX009 (sc), vehicle: other 123 % of control | endpoint: mean survival time, dose: 2.0 mg/kg/injection, schedule: Q01DX009 (ip), vehicle: Klucel (hydroxypropylcellulose) (HPC) 107 % of control | endpoint: mean survival time, dose: 2.0 mg/kg/injection, schedule: Q01DX009 (ip), vehicle: saline with Tween-80 119 % of control | endpoint: mean survival time, dose: 2.0 mg/kg/injection, schedule: Q02DX005 (ip), vehicle: saline 115 % of control | endpoint: mean survival time, dose: 2.5 mg/kg/injection, schedule: Q01DX005 (ip), vehicle: distilled water + Tween-80 93 % of control | endpoint: mean survival time, dose: 2.5 mg/kg/injection, schedule: Q01DX005 (ip), vehicle: water 100 % of control | endpoint: mean survival time, dose: 4.0 mg/kg/injection, schedule: Q01DX009 (ip), vehicle: Klucel (hydroxypropylcellulose) (HPC) 109 % of control | endpoint: mean survival time, dose: 4.0 mg/kg/injection, schedule: Q02DX005 (ip), vehicle: saline 107 % of control | endpoint: mean survival time, dose: 4.0 mg/kg/injection, schedule: Q03DX002 (ip), vehicle: saline with Tween-80 108 % of control | endpoint: mean survival time, dose: 5.0 mg/kg/injection, schedule: Q01DX005 (ip), vehicle: distilled water + Tween-80 98 % of control | endpoint: mean survival time, dose: 5.0 mg/kg/injection, schedule: Q01DX005 (ip), vehicle: water 100 % of control | endpoint: mean survival time, dose: 5.0 mg/kg/injection, schedule: Q02DX005 (ip), vehicle: saline 87 % of control | endpoint: mean survival time, dose: 5.0 mg/kg/injection, schedule: Q## X005 (ip), vehicle: saline 117 % of control | endpoint: mean survival time, dose: 6.0 mg/kg/injection, schedule: Q03DX002 (ip), vehicle: saline with Tween-80 103 % of control | endpoint: mean survival time, dose: 8.0 mg/kg/injection, schedule: Q03DX002 (ip), vehicle: saline with Tween-80 93 % of control | endpoint: mean survival time, dose: 10.0 mg/kg/injection, schedule: Q01DX005 (ip), vehicle: distilled water + Tween-80 102 % of control | endpoint: mean survival time, dose: 10.0 mg/kg/injection, schedule: Q01DX005 (ip), vehicle: water 98 % of control | endpoint: mean survival time, dose: 10.0 mg/kg/injection, schedule: Q03DX002 (ip), vehicle: saline with Tween-80 110 % of control | endpoint: mean survival time, dose: 10.0 mg/kg/injection, schedule: Q## X005 (ip), vehicle: saline 102 % of control | endpoint: mean survival time, dose: 12.0 mg/kg/injection, schedule: Q03DX002 (ip), vehicle: saline with Tween-80 117 % of control | endpoint: mean survival time, dose: 16.0 mg/kg/injection, schedule: Q01DX009 (ip), vehicle: Klucel (hydroxypropylcellulose) (HPC) 111 % of control | endpoint: mean survival time, dose: 20.0 mg/kg/injection, schedule: Q01DX005 (ip), vehicle: distilled water + Tween-80 100 % of control | endpoint: mean survival time, dose: 20.0 mg/kg/injection, schedule: Q01DX005 (ip), vehicle: water 98 % of control | endpoint: mean survival time, dose: 20.0 mg/kg/injection, schedule: Q04DX002 (ip), vehicle: saline 97 % of control | endpoint: mean survival time, dose: 20.0 mg/kg/injection, schedule: Q## X005 (ip), vehicle: saline 88 % of control | endpoint: mean survival time, dose: 30.0 mg/kg/injection, schedule: Q04DX002 (ip), vehicle: saline 107 % of control | endpoint: mean survival time, dose: 40.0 mg/kg/injection, schedule: Q04DX002 (ip), vehicle: saline 118 % of control and 103 % of control | endpoint: mean survival time, dose: 50.0 mg/kg/injection, schedule: Q04DX002 (ip), vehicle: saline 100 % of control | endpoint: mean survival time, dose: 60.0 mg/kg/injection, schedule: Q04DX002 (ip), vehicle: saline 108 % of control | endpoint: mean survival time, dose: 75.0 mg/kg/injection, schedule: Q04DX003 (ip), vehicle: saline 118 % of control | endpoint: median survival time, dose: 0.62 mg/kg/injection, schedule: Q01DX009 (ip), vehicle: saline 96 % of control | endpoint: median survival time, dose: 1.25 mg/kg/injection, schedule: Q01DX009 (ip), vehicle: saline 97 % of control | endpoint: median survival time, dose: 5.0 mg/kg/injection, schedule: Q01DX009 (ip), vehicle: saline 111 % of control | endpoint: median survival time, dose: 10.0 mg/kg/injection, schedule: Q01DX009 (ip), vehicle: saline 113 % of control | endpoint: median survival time, dose: 20.0 mg/kg/injection, schedule: Q01DX009 (ip), vehicle: saline 97 % of control
